Our source for the TGI and GI50 values is PubChem BioAssay (NCI).

SMILES strings stand for the structures. Several values for one entry are separate records, joined by “and”; a condition that tells them apart may be missing. Identical values can stand only once.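 Exposure lasted 48 hours, with cells grown in 96-well plates and compounds tested at five concentrations. GI50: concentration for 50% inhibition of growth. TGI is the concentration that stops growth completely.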 Where only a bound is given, the exact number is not on record here.

Among the test systems are KM20L2 colon; HOP-18 NSCLC; DMS 273 small cell lung; LXFL 529 NSCLC; DLD-1 colon; DMS 114 small cell lung; XF 498 CNS; SN12K1 renal; P388/ADR leukemia.
Holding throughout (assay): NCI tumour cell line growth inhibition, 48 h

Consider `CCCCCCCC(=O)OCC(C[As](=O)(O)O)OC(=O)CCCCCCC` (stereo not given), for which the TGI in the assay with KM20L2 colon came out at 30.7 µM; in the assay on HOP-18 NSCLC, 29.3 µM; in the assay with DMS 273 small cell lung it was 27.4 µM; with LXFL 529 NSCLC it was 26.3 µM; in the assay on DLD-1 colon, 30.9 µM; with DMS 114 small cell lung it was 30.6 µM.
With `N#Cc1ccc(Nc2cnc3ccc(N)cc3n2)cc1`, the TGI in the assay with KM20L2 colon, in the assay on DMS 273 small cell lung, in the assay with LXFL 529 NSCLC, in the assay with XF 498 CNS, with DLD-1 colon and in the assay on DMS 114 small cell lung was more than 100 µM each time.
In the case of `C=C1C(=O)O[C@@H]2OC3(C)CCC4C(C)CCC1C42OO3` (stereo not given in full), the GI50 is 11.1 µM in the assay with KM20L2 colon, 20.1 µM with HOP-18 NSCLC, 12 µM in the assay with XF 498 CNS and 1.02 µM with DLD-1 colon. The TGI was 24.1 µM in the assay on KM20L2 colon; 34.5 µM and 30.2 µM with HOP-18 NSCLC; 15.6 µM and 15.1 µM in the assay on SN12K1 renal; 14.2 µM and 13.2 µM in the assay with DMS 273 small cell lung; 24.3 µM and 3.88 µM in the assay with XF 498 CNS; 1.2 µM in the assay with P388/ADR leukemia. Besides, the TGI in the assay with DLD-1 colon was 4.72 µM and 4.65 µM.
Turning to `O=C1C2=C(CCCCC2)C2CCCCC12O` (stereo not given), the TGI with KM20L2 colon, with DMS 273 small cell lung, in the assay with LXFL 529 NSCLC, in the assay with XF 498 CNS, in the assay on DLD-1 colon and in the assay with DMS 114 small cell lung was more than 100 µM each time.
Take `C/C(=N\NC(=O)c1cccnc1)c1cccc(/C(C)=N/NC(=O)c2cccnc2)n1.CC(=O)[O-].CC(=O)[O-].[Zn+2]`: the TGI in the assay on KM20L2 colon is more than 100 µM; in the assay with HOP-18 NSCLC, more than 26.9 µM; in the assay with DMS 273 small cell lung, 98.1 µM; in the assay with LXFL 529 NSCLC, more than 100 µM; in the assay with DLD-1 colon it was more than 100 µM; in the assay on DMS 114 small cell lung, 20.1 µM. The GI50 is 2.55 µM in the assay on HOP-18 NSCLC, 2.15 µM with DMS 273 small cell lung, 0.836 µM with LXFL 529 NSCLC and 0.949 µM in the assay on DMS 114 small cell lung.
Take `CC(=O)Nc1ccc(-c2nnc(SCC(=O)Nc3cccc([N+](=O)[O-])c3)o2)cc1`: the TGI with KM20L2 colon was 37.4 µM; in the assay with HOP-18 NSCLC, 65.9 µM; in the assay on DMS 273 small cell lung it was 23.5 µM; with LXFL 529 NSCLC, 17 µM; in the assay with DLD-1 colon, 35.5 µM; with DMS 114 small cell lung, 22.3 µM.
As to `COc1cc2cc3c4c(cc(OC)c(OC)c4c2cc1OC)CCN3C(=O)N(C)C`, the TGI with KM20L2 colon, in the assay on DMS 273 small cell lung, in the assay with LXFL 529 NSCLC, in the assay with DLD-1 colon and in the assay with DMS 114 small cell lung was more than 100 µM each time.
